US20220288026A1, “METHODS OF TREATING KIDNEY DISEASES” (priority 2019, published 2022)
“Also recorded” adds a separate entry of the source. Where two headings read alike, the source gives them in different places.

Experiments:
[1] = tested on: kidney tissue of g-ddY mice; experiment: Ingenuity Pathway Analysis (IPA) canonical pathways, g-ddY kidney RNA-seq; type: in vivo, mouse; conditions: 30 mg/kg/day
Experimental: (§1) RNA isolation and sequencing libraries were generated using standard protocols. Sequencing was performed using an Illumina NextSeq500 using manufacturer's instructions with a read length of 75 bp and a read depth of 30 million. Raw data was assembled to FASTQ files. Following QC analysis, high quality sequencing reads (e.g., reads with a Phred quality score >36) were aligned to the mouse reference genome (GRCm38-mm10) using the default parameters of the align algorithm and transcript count tables of each library was generated using the default parameters of the featureCounts algorithm of the RSubread package (Liao Y, Smyth G K, Shi W, 2019). High quality sequencing reads mapped to 27,129 genes. Following additional QC of low count filtering (i.e. transcripts <10 counts across all samples), 16,207 genes were identified and used for further analysis. The remaining sequencing read counts of the included 16,207 genes were normalized to library size, log-transformed, and were quantified as counts per million (CPM). Select RNA-seq counts were validated using qPCR.

[2] = tested on: kidney tissue of g-ddY mice; experiment: IPA upstream regulator analysis, g-ddY kidney RNA-seq; type: in vivo, mouse; conditions: 30 mg/kg/day
[3] = tested on: g-ddY mice; experiment: UACR (albuminuria) in g-ddY mouse model of IgA nephropathy; type: in vivo
From the text: The grouped ddY (g-ddY) mouse is a spontaneous model of early-onset IgA nephropathy characterized by IgA immune complex deposition in the mesangium of the kidney, leading to significant proteinuria, glomerular hypercellularity, mesangioproliferative glomerular lesions, glomerular sclerosis and reduced kidney function, all hallmarks of human IgA nephropathy (J Am Soc Nephrol 23: 1364-1374, 2012). Consistent with human IgA nephropathy, the mesangial IgA deposits in the g-ddY mouse are also accompanied by deposition of IgG and complement C3.

[4] = tested on: primary human renal mesangial cells (HRMCs); experiment: Proliferation (BrdU) of HRMCs stimulated with IgA-containing immune complexes; type: cell-based
From the text: Primary human mesangial cells in a culture were stimulated with pathogenic galactose deficient (Gd)-IgA containing immune complexes isolated from human IgA nephropathy patients.
Specifically, pathogenic IgA-containing immune complexes were isolated from serum from either IgA nephropathy patients or age, gender and ethnicity-matched healthy individuals. Frozen serum was purchased from BioIVT and IgA-containing immune complexes were purified using jacalin affinity chromatography. […] Purified IgA-containing immune complexes were concentrated using a 100K Amicon filtration unit and the amount of total IgA and galactose-deficient IgA (Gd-IgA) in the immune complexes was measured by ELISA (ThermoFisher and IBL America, respectively). […] See, e.g., Novak et. al., Kidney International, 67, pp. 504-516; 2005; Novak et. al., Nephrol. Dial. Transplant, 26, pp. 3451-3457; 2011; Liang et. al., Cell Physiol. Biochem., 36, pp. 1793-1808; 2015; Nguyen et. al., Clin. Kidney J., 12 (2), pp, 232-238; 2019.

[5] = tested on: kidney tissue of g-ddY mice; experiment: Gene Set Enrichment Analysis (GSEA) hallmark gene sets, g-ddY kidney RNA-seq; type: in vivo, mouse
Experimental: as §1

[6] = tested on: kidney tissue of g-ddY mice
[7] = tested on: patients with diabetic kidney disease (DKD); conditions: cited from earlier work
[8] = 10 mg/kg/day vs untreated control
[9] = 20 mg/kg/day vs untreated control
[10] = 30 mg/kg/day vs untreated control

CCCCN(CCCC)C(=O)CN1C[C@H](c2ccc3c(c2)OCO3)[C@@H](C(=O)O)[C@@H]1c1ccc(OC)cc1 [atrasentan, (2R,3R,4S)-4-(1,3-benzodioxol-5-yl)-1-[2-(dibutylamino)-2-oxoethyl]-2-(4-methoxyphenyl)pyrrolidine-3-carboxylic acid]
IPA: effect on signaling pathways [1]: reduced NF-κB signaling, IL-6 pathway signaling (e.g., STAT3), and PDGF signaling | NF-κB signaling [1]: reduced NF-κB signaling | PDGF signaling [1]: reduced PDGF signaling | Predicted Activation State 26s Proteasome [2]: Inhibited | Predicted Activation State ADGRF5 [2]: Activated | Predicted Activation State AGT [2]: Inhibited | Predicted Activation State BMP2 [2]: Inhibited | Predicted Activation State CCL5 [2]: Inhibited | Predicted Activation State CCN5 [2]: Activated | Predicted Activation State CCR2 [2]: Inhibited | Predicted Activation State CD40LG [2]: Inhibited | Predicted Activation State CG [2]: Inhibited | Predicted Activation State CHRM3 [2]: Inhibited | Predicted Activation State CSF2 [2]: Inhibited | Predicted Activation State CSF3 [2]: Inhibited | Predicted Activation State CXCL12 [2]: Inhibited | Predicted Activation State DKK1 [2]: Activated | Predicted Activation State EDN1 [2]: Inhibited | Predicted Activation State EDNRA [2]: Inhibited | Predicted Activation State EGF [2]: Inhibited | Predicted Activation State F2R [2]: Inhibited | Predicted Activation State F3 [2]: Inhibited | Predicted Activation State FAS [2]: Activated | Predicted Activation State FCGR1A [2]: Inhibited | Predicted Activation State FGF2 [2]: Inhibited | Predicted Activation State FGF23 [2]: Inhibited | Predicted Activation State GDF2 [2]: Inhibited | Predicted Activation State GPER1 [2]: Inhibited | Predicted Activation State HGF [2]: Inhibited | Predicted Activation State HTR7 [2]: Inhibited | Predicted Activation State IFNA2 [2]: Inhibited | Predicted Activation State IFNAR1 [2]: Inhibited | Predicted Activation State IFNG [2]: Inhibited | Predicted Activation State IGF1 [2]: Inhibited | Predicted Activation State IGF1R [2]: Activated | Predicted Activation State IL1A [2]: Inhibited | Predicted Activation State IL1B [2]: Inhibited | Predicted Activation State IL2 [2]: Inhibited | Predicted Activation State IL3 [2]: Inhibited | Predicted Activation State IL6 [2]: Inhibited | Predicted Activation State IL6R [2]: Inhibited | Predicted Activation State IL10 [2]: Inhibited | Predicted Activation State IL21 [2]: Inhibited | Predicted Activation State IL33 [2]: Inhibited | Predicted Activation State ILR4 [2]: Inhibited | Predicted Activation State Ifn gamma [2]: Inhibited | Predicted Activation State Ige [2]: Inhibited | Predicted Activation State LDL [2]: Inhibited | Predicted Activation State LGR5 [2]: Activated | Predicted Activation State Laminin (complex) [2]: Activated | Predicted Activation State NFkB (complex) [2]: Inhibited | Predicted Activation State NRG1 [2]: Inhibited | Predicted Activation State OSM [2]: Inhibited | Predicted Activation State PDGF BB [2]: Inhibited | Predicted Activation State PDGFB [2]: Inhibited | Predicted Activation State PF4 [2]: Inhibited | Predicted Activation State PI3K (complex) [2]: Inhibited | Predicted Activation State PLA2R1 [2]: Activated | Predicted Activation State PRL [2]: Inhibited | Predicted Activation State PROKR1 [2]: Activated | Predicted Activation State PTGER4 [2]: Activated | Predicted Activation State Pdgf (complex) [2]: Inhibited | Predicted Activation State SMO [2]: Activated | Predicted Activation State TCR [2]: Inhibited | Predicted Activation State TGFB1 [2]: Inhibited | Predicted Activation State TGFB2 [2]: Inhibited | Predicted Activation State TGFB3 [2]: Inhibited | Predicted Activation State TLR3 [2]: Inhibited | Predicted Activation State TLR9 [2]: Inhibited | Predicted Activation State TNF [2]: Inhibited | Predicted Activation State TNFRSF1A [2]: Inhibited | Predicted Activation State TNFSF11 [2]: Inhibited | Predicted Activation State TNFSF12 [2]: Inhibited | Predicted Activation State TREM1 [2]: Inhibited | Predicted Activation State TSLP [2]: Inhibited | Predicted Activation State TYROBP [2]: Inhibited | Predicted Activation State VEGFA [2]: Inhibited | Predicted Activation State VEGFB [2]: Activated | Predicted Activation State WNT3A [2]: Inhibited | UACR reduction compared to control group (un-paired t-test) ([3]; 10 mg/kg/day): not significant | mice with reduced albuminuria/proteinuria ([3]; 10 mg/kg/day group): ⅔ | albuminuria compared to baseline (paired t-test) ([3]; 10 mg/kg/day, approximately 5 days): not significantly changed from baseline | UACR reduction compared to control group (un-paired t-test) ([3]; 20 mg/kg/day, P=0.0498): statistically significant compared to the control group | albuminuria compared to baseline (paired t-test) ([3]; 20 mg/kg/day, approximately 5 days, P=0.0593): reduced from baseline to a similar extent | UACR reduction compared to control group (un-paired t-test) ([3]; 30 mg/kg/day, P=0.029): statistically significant compared to the control group | albuminuria compared to baseline (paired t-test) ([3]; 30 mg/kg/day, approximately 5 days, P=0.0002): reduced albuminuria from baseline | albuminuria reduction from baseline ([3]; 20 and 30 mg/kg/day, approximately 5 days): > 60% | basal cell proliferation of HRMCs ([4]; IgA containing serum fractions from healthy controls): no effect on basal cell proliferation | hyperproliferation of HRMCs induced by IgA containing immune complexes ([4]; immune complexes from three patients with IgA nephropathy): reduces the proliferation; also recorded: significantly attenuated the hyperproliferation | NES HALLMARK_REACTIVE_OXYGEN_SPECIES_PATHWAY ([5]; 10 mg/kg/day vs. control): 1.59 | NES HALLMARK_REACTIVE_OXYGEN_SPECIES_PATHWAY ([5]; 20 mg/kg/day vs. control): 1.61 | IL-6 signaling ([5]; 30 mg/kg/day): reduced IL-6 signaling | cell proliferation associated signaling (mitotic spindle and G2M checkpoint) ([5]; 30 mg/kg/day): reduced cell proliferation associated signaling | inflammatory response signaling ([5]; 30 mg/kg/day): reduced inflammatory response signaling | NES HALLMARK_REACTIVE_OXYGEN_SPECIES_PATHWAY ([5]; 30 mg/kg/day vs. control): 1.98 | GSEA: TNFα signaling via NF-κB, epithelial mesenchymal transition, inflammatory response, IL6-JAK-STAT3 signaling, mitotic spindle, G2M checkpoint ([5]; 10, 20, and 30 mg/kg/day): concordant negative enrichment | ET1 gene signature genes downregulated [6, 8]: Grk5, Mllt3, Klf2, Pparg, Hgf, Edn1, Fos, Ptgs2, and IL-1b were downregulated | ET1 gene signature genes upregulated [6, 8]: Ccnd1, Ppara, Agt, Map2k2 and Hoxa9 were upregulated | ET1 gene signature genes downregulated [6, 9]: Nfatc1, Grk5, Klf2, Cav1, Pparg, Itga5, Myc, Ednra, Sell, Hgf, Mmp2, Edn1, Syk, Fos, and IL-1b were downregulated | ET1 gene signature genes upregulated [6, 9]: Ccdn1, Cat, Ppara, Map2k2, Hoxa9, Agt, and Egfr were upregulated | ET1 gene signature genes downregulated [6, 10]: downregulated genes Ednrb, Myc, Mllt3, Hdac7, Ednra, Itga5, Grk5, Pparg, Klf2, Hgf, Mmp2, Sell, Sphk1, Fos, Syk, Edn1, and IL-1b | ET1 gene signature genes upregulated [6, 10]: upregulated genes Ccnd1, Agt, Cat, Map2k2, Hoxa9, and Ppara | ET1 (Edn1) gene expression ([6]; 10, 20, and 30 mg/kg/day): downregulated across all three doses | risk of renal events (doubling of serum creatinine or end-stage kidney disease) [7]: significantly reducing the risk of renal events
